We go through 8 substances from article PMC4776139, “Extended string-like binding of the phosphorylated HP1α N-terminal tail to the lysine 9-methylated histone H3 tail” (Scientific Reports, 2016).

Series [1] deals with H3K9me peptide (22-mer, amino acids 1–21 of histone H3 with a C-terminal tyrosine). Briefly: Isothermal titration calorimetry (ITC) of HP1α chromodomain constructs with H3K9me peptide. The following applies: for ΔS (entropy change): calculated from Kd and ΔH; for Ka / ΔH (enthalpy change): pH 6.80, one-site binding model; for pKd: VP-ITC, protein 40 μM in cell, titrated with 400 μM H3K9me peptide, one-site binding model; for fold weaker binding to H3K9me as compared with NCD^Δ1–9: relative to NCD^Δ1–9; for fold stronger binding to H3K9me than the CD alone: relative to CD (NCD^Δ1–19); for times more strongly bound H3K9me than the CD: relative to CD. In kind it is binding. As to the method: Protein solution (40 μM) was loaded into a VP-ITC isothermal titration calorimeter (Microcal, INC.) cell (active cell volume 1.4 ml). The solution was titrated against 400 μM ligand solution via a 250 μl titration syringe. Experiments were carried out at 20 °C. The ligand solution was prepared in the same buffer as the protein (20 mM KPB (pH 6.80), 10 mM NaCl). The heat of dilution generated by the ligand was subtracted, and the binding isotherms were fitted to a one-site binding model by using Origin 7 Software (Microcal, INC.). From the values of Kd and ΔH, the thermodynamic parameters, ΔG and ΔS were calculated according to the basic thermodynamic equations;

Series [2] is described as follows: Small angle X-ray scattering (SAXS). As to Dmax (maximum particle dimension): values in Å. As to Rg (radius of gyration): values in Å. In kind it is physicochemical. The following applies: for association state, in words: SAXS at 5, 10 and 15 mg/ml, no scattering from aggregated protein; for association state, in words / Dmax (maximum particle dimension): pH 6.8, 20 °C; for Rg (radius of gyration) / Estimated molecular weight (association state) / Dmax (maximum particle dimension): SAXS; for Rg (radius of gyration): Guinier plot; for Estimated molecular weight (association state): from I(0)/c compared to hen egg white lysozyme; for Dmax (maximum particle dimension): from P(r) function (GNOM). As to the method: To confirm the structural differences between unmod-NCD and phos-NCD, small angle X-ray scattering (SAXS) experiments were carried out on CD, unmod-NCD, and phos-NCD. To check inter-particle interference, SAXS data were collect at three different protein concentrations, 5, 10 and 15 mg/ml (Supplementary Fig. S4). The radius of gyration Rg, and the estimated molecular weight from the forward scattering intensity I(0), of CD, unmod-NCD, and phos-NCD are summarized in Fig. 3. […] The Rg value of the CD at the three different protein concentrations was estimated as 14.0 ± 0.3, 13.8 ± 0.3 and 13.7 ± 0.2 Å, which are close to the Rg value calculated from the NMR structure of the CD (15.0 Å).
We converted the scattering profiles at 5 mg/ml to the P(r) function and the estimated maximum particle dimension, Dmax (Fig. 3). […] The Dmax of unmod-NCD (79 Å) and phos-NCD (94 Å) was larger than that of the CD (56 Å). The extended tail of the P(r) function and larger Dmax for unmod-NCD and phos-NCD is due to scattering from the N-terminal tail region in each case.
SAXS measurements were performed at 20 °C with a MicroMax007HF X-ray generator (Rigaku). A PILATUS100K detector (DECTRIS) at a distance of 561 mm from the sample was used to measure scattering intensities. Each sample solution was transferred to a quartz-window cell with a 1 mm path length. Circular averaging of the scattering intensities was carried out to obtain one-dimensional scattering data I(q) as a function of q (q = 4πsinθ/λ, where 2θ is the scattering angle and λ is the X-ray wavelength 1.5418 Å). To correct for interparticle interference, I(q) data were collected at three different protein concentrations (5, 10, and 15 mg/ml in 50 mM KPB (pH 6.8), 500 mM NaCl, and 5 mM DTT.). The total exposure times were 6 hours for 5 mg/ml, and 3 hours for both 10mg/ml and 15mg/ml. […] To estimate the molecular weight of samples, I(q) data were collected for hen egg white lysozyme (5.2 mg/ml in 50 mM KPB (pH 6.8), 500 mM NaCl). The data were processed by using the software applications embedded in the ATSAS package [ http://www.embl-hamburg.de/biosaxs/software.html]. The radius of gyration Rg and forward scattering intensity I(0) were estimated from the Guinier plot[35] of I(q) in the smaller angle region of qRg < 1.3. The distance distribution function P(r) was calculated in the program GNOM[36], where the experimental I(q) data were used in a q-range from 0.031 to 0.250 Å^−1. The maximum particle dimension Dmax was estimated from the P(r) function as the distance r for which P(r) = 0[35]. The I(q) and Rg of 20 models corresponding to the NMR structures were calculated by using the program CRYSOL[37] and averaged. The molecular weight of the sample was estimated by comparing I(0)/c (where c is the protein concentration) of the sample to that of lysozyme.

Series [3] can be described thus: HSQC dilution check for dimer or multimer association. In kind it is physicochemical. Conditions: 10-fold diluted samples. From the text:
It might be possible that the differences in chemical shift observed between unmod-NCD and phos-NCD originate from different dimer or multimer associations due to their N-terminal tails.

[4] abbreviates: 20 mM KPB (pH 6.80), 10 mM NaCl, 20 °C.
The mark [5] stands for this setting: 5 mg/ml, exposure 1 h x6, 50 mM KPB (pH 6.8), 500 mM NaCl, 5 mM DTT, 20 °C.
The mark [6] stands for this setting: 10 mg/ml, exposure 1 h x3, pH 6.8, 20 °C.
The mark [7] stands for this setting: 15 mg/ml, exposure 1 h x3, pH 6.8, 20 °C.

pKd: −log10 of the molar value.

What is called pKd is the Kd on a negative log10 scale, so that one unit is a factor of ten. Lower therefore signals a large Kd. On to “NCD^Δ1–4: N-terminal deletion mutant, amino acids 5–80 of HP1α”, for which, in series [1] (20 °C), the “ΔS (entropy change)” value was 7.75 cal/mol/K, the Ka came out at 1.31e+06 ± 50700 M⁻¹ and the “ΔH (enthalpy change)” value was -5.933 ± 0.02294 kcal/mol. In addition, the pKd in series [1] (setting [4]) is 6.12. Also, the “fold weaker binding to H3K9me as compared with NCD^Δ1–9” value in series [1] is given as “about 4 -fold”.
“NCD^Δ1–9: N-terminal deletion mutant, amino acid 10–80 of HP1α”: in series [1] (20 °C), the “ΔS (entropy change)” value is reported as 5.66 cal/mol/K, the Ka is 6.04e+06 ± 255000 M⁻¹ and the “ΔH (enthalpy change)” value was -7.435 ± 0.01679 kcal/mol. Also, the pKd in series [1] (setting [4]) is 6.80. Moreover, the “fold stronger binding to H3K9me than the CD alone” value (“fold stronger binding” for short) in series [1] is on record as “about 83 -fold”.
With “NCD^Δ1–14: acidic segment plus CD, amino acids 15–80 of HP1α”, in series [1] (20 °C), the “ΔS (entropy change)” value is 1.13 cal/mol/K, the Ka stood at 397000 ± 40700 M⁻¹ and the “ΔH (enthalpy change)” value is -7.178 ± 0.1141 kcal/mol. Moreover, the negative logarithm of the Kd (pKd) in series [1] (setting [4]) was 5.60. Further, in series [1], the “fold stronger binding” value is recorded as “about 5 -fold”.
With “NCD^Δ1–19: CD domain alone, amino acids 20–80 of HP1α”, in series [2], the “association state, in words” value is “monomer”. In addition, the entries for the “Rg (radius of gyration)” value in series [2] (setting [5]), in series [2] (setting [6]) and in series [2] (setting [7]) were 14.0 ± 0.3 Å, 13.8 ± 0.3 Å and 13.7 ± 0.2 Å, respectively. Also, the “Estimated molecular weight (association state)” value (from here on “Estimated molecular weight”) is 6.6 kDa in series [2] (5 mg/ml), 6.0 kDa in series [2] (10 mg/ml) and 6.1 kDa in series [2] (15 mg/ml). For the same substance, in series [2] (5 mg/ml), the “Dmax (maximum particle dimension)” value is listed as 56 Å. Also, the “ΔS (entropy change)” value in series [1] (20 °C) is -13.0 cal/mol/K. In series [1] (20 °C), this substance returned a Ka of 75000 ± 2300 M⁻¹. Besides, in series [1] (20 °C), the “ΔH (enthalpy change)” value is on record as -1.036E4±103.0 cal/mol. The substance also gave a pKd in series [1] (setting [4]) of 4.88.
“phos-NCD: chromodomain with phosphorylated N-terminal tail, amino acids 1–80 of HP1α, co-expressed with casein kinase II”: the “HSQC signal changes upon dilution” value in series [3] was “no significant signal changes were observed”. Moreover, the “association state, in words” value in series [2] is on record as “monomer”. Moreover, the “Rg (radius of gyration)” value is 18.9 ± 0.4 Å in series [2] (setting [5]), 19.4 ± 0.4 Å in series [2] (setting [6]) and 19.8 ± 0.3 Å in series [2] (setting [7]). In addition, the “Estimated molecular weight” value is given as 11.7 kDa in series [2] (5 mg/ml), 11.7 kDa in series [2] (10 mg/ml) and 11.9 kDa in series [2] (15 mg/ml). Further, the “Dmax (maximum particle dimension)” value in series [2] (5 mg/ml) came out at 94 Å. In series [1] (20 °C), the “ΔS (entropy change)” value is 2.23 cal/mol/K. The same substance had a Ka in series [1] (20 °C) of 5.87e+06 ± 521000 M⁻¹. In addition, the “ΔH (enthalpy change)” value in series [1] (20 °C) is -8.424 ± 0.044 kcal/mol. In series [1] (setting [4]), this substance showed a pKd of 6.77. The “times more strongly bound H3K9me than the CD” value in series [1] was “about 80 times”. Also, in series [1] (relative to unmod-NCD), the “fold stronger affinity for H3K9me than unmod-NCD” value is “approximately 10 -fold”.
“phos-NCD^Δ1–4: NCD^Δ1–4 (amino acids 5–80) with phosphorylated serine residues”: the “binding to H3K9me relative to un-phosphorylated NCD^Δ1–9, in words” value in series [1] is reported as “recovered to a value similar to that of un-phosphorylated NCD^Δ1–9”. Further, in series [1] (20 °C), the “ΔS (entropy change)” value is listed as 1.14 cal/mol/K, the Ka stood at 2.61e+06 ± 236000 M⁻¹ and the “ΔH (enthalpy change)” value is -8.271 ± 0.05999 kcal/mol. Also, in series [1] (setting [4]), the pKd is 6.42.
By Kd is commonly meant the free concentration of one partner at which half of the binding sites on the other are occupied at equilibrium, for simple one-to-one binding. Read a low Kd as tighter binding. The substance “phos-NCD^Δ1–9: phosphorylated NCD^Δ1–9 form, amino acids 10–80 of HP1α” gave an equilibrium dissociation constant (Kd) in series [1] (20 °C, 20 mM KPB (pH 6.80), 10 mM NaCl, value in nM) of 40 nM. In addition, in series [1] (20 °C), the “ΔS (entropy change)” value was 12.6 cal/mol/K, the Ka was found to be 2.58e+07 ± 5.24e+06 M⁻¹ and the “ΔH (enthalpy change)” value was -6.233 ± 0.04246 kcal/mol. In addition, in series [1], the “times more strongly bound H3K9me than the CD” value was “more than 300 times” and the “fold stronger binding” value is reported as “about 330 -fold”.
Turning to “unmod-NCD: chromodomain with un-phosphorylated N-terminal tail, amino acids 1–80 of HP1α”, in series [3], the “HSQC signal changes upon dilution” value is reported as “no significant signal changes were observed”. Besides, the “association state, in words” value in series [2] is “monomer”. The figures for the “Rg (radius of gyration)” value in series [2] (setting [5]), in series [2] (setting [6]) and in series [2] (setting [7]) were 17.2 ± 0.4 Å, 17.0 ± 0.3 Å and 17.4 ± 0.3 Å, respectively. Further, the “Estimated molecular weight” value in series [2] (5 mg/ml) is reported as 8.8 kDa; in series [2] (10 mg/ml), 8.5 kDa; in series [2] (15 mg/ml), 8.8 kDa. Further, the “Dmax (maximum particle dimension)” value in series [2] (5 mg/ml) was determined as 79 Å. Moreover, in series [1] (20 °C), the “ΔS (entropy change)” value was 3.16 cal/mol/K. In addition, in series [1] (20 °C), the Ka is 564000 ± 25900 M⁻¹. Also, the “ΔH (enthalpy change)” value in series [1] (20 °C) was -6.79 ± 0.04533 kcal/mol. Besides, the pKd in series [1] (setting [4]) was 5.75. The “fold weaker binding to H3K9me as compared with NCD^Δ1–9” value in series [1] is 6 -fold.
